Earlier results on two molecules are cited in US20140113009A1, “CONTROLLED APPLICATION OF CROSS-LINKING AGENT” (Avedro, Inc., priority 2012, published 2014).

The conditions of data set [1]: compared with Riboflavin.
For data set [2] the following is noted: combined with greater than 40 mM ascorbic acid; after 4 hours of light exposure.

For the molecule `Cc1cc2nc3c(=O)[nH]c(=O)nc-3n(C[C@H](O)[C@H](O)[C@H](O)COP(=O)(O)O)c2cc1C` [FMN, Riboflavin-5-phosphate], the “solubility in water relative to Riboflavin” value in data set [1] is given as “more soluble in water”.
Regarding `O=C1O[C@H]([C@@H](O)CO)C(O)=C1O` [ascorbic acid], the Riboflavin remains unreacted result in data set [2] is “more than 90%”.
